Laboratory results reported in BindingDB's records for doi:10.1074/jbc.M113.474114 (Glaxosmithkline, 2013).

Biological target: T1, Tyrosine-protein kinase ITK/TSK [357-620,Y512E] (Human, UniProt Q08881, Y512E)
T1 construct: 357-620
Experiment: LanthaScreen Kinase Binding Assay
Text: This assay is based on the binding and displacement of Alexa-fluor 647-labeled ATP-competitive kinase inhibitor tracer 236. Binding of the tracer is detected using a europium-labeled anti-tag antibody that binds to the purified recombinant tagged Itk protein. Binding of the tracer 236 is reversible and rapid, and simultaneous binding of the tracer and antibody results in fluorescence resonance energy transfer (FRET). Displacement of the tracer upon inhibitor binding results in a decrease of FRET. The assay can be read continuously, enabling rates of binding (and displacement) to be monitored.

T1 sequence (Q08881 357-620 Y512E): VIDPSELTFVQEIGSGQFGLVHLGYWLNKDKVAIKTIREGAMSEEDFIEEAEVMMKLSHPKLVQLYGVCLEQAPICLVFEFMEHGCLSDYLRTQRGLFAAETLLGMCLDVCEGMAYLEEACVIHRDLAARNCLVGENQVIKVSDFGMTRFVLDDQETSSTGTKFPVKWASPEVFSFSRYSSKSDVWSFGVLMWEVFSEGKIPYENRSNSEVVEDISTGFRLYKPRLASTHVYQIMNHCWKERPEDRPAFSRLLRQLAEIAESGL

First: C=CC(=O)N1CC[C@H](Nc2cc(CN[C@@H](C)C(C)(C)C)cc(Nc3nc4cccnc4s3)n2)C1
Second: C=CC(=O)N1CC[C@H](Nc2cc(CN[C@H](C)C(C)(C)C)cc(Nc3nc4cccnc4s3)n2)C1 [1-((S)-3-((4-((((R)-3,3-Dimethylbutan-2-yl)amino)methyl)-6-(thiazolo[5,4-b]pyridin-2-ylamino)pyridin-2-yl)amino)pyrrolidin-1-yl)prop-2-en-1-one (13)]
The IC50 of the first is 1.6-fold lower: 5 nM for the first, 7.9 nM for the second.

C=CC(=O)N[C@H]1CCCC[C@H]1Nc1nc(CN2CCOCC2)cc(Nc2nc3cccnc3s2)n1 (relative stereo) [N-(cis-2-{[4-(4-Morpholinylmethyl)-6-([1,3]thiazolo[5,4-b]pyridin-2-ylamino)-2-pyrimidinyl]amino}cyclohexyl)-2-propenamide (4)] and C=CC(=O)N[C@H]1CCC[C@@H](Nc2nc(CN3CCOCC3)cc(Nc3nc4cccnc4s3)n2)C1 (relative stereo) [N-(cis-3-{[4-(4-Morpholinylmethyl)-6-([1,3]thiazolo[5,4-b]pyridin-2-ylamino)-2-pyrimidinyl]amino}cyclohexyl)-2-propenamide (6)] are within 1.5-fold of each other in IC50: 320 nM for the first, 250 nM for the second.

Compared with C=CC(=O)N1CC[C@H](Nc2cc(CN(C)C)cc(Nc3nc4cccnc4s3)n2)C1 [(S)-1-(3-((4-((Dimethylamino)methyl)-6-(thiazolo[5,4-b]pyridin-2-ylamino)pyridin-2-yl)amino)pyrrolidin-1-yl)prop-2-en-1-one (11)], C=CC(=O)N1CC[C@H](Nc2cc(CN3C[C@@H](C)O[C@@H](C)C3)cc(Nc3nc4cccnc4s3)n2)C1 [N-[(3S)-1-Acryloyl-3-pyrrolidinyl]-4-{[cis-2,6-dimethyl-4-morpholinyl]methyl}-N'-[1,3]thiazolo[5,4-b]pyridin-2-yl-2,6-pyridinediamine (9)] is 6.4-fold lower in IC50: 32 nM for the first, 5 nM for the second.

Compared with C=CC(=O)N1CC[C@H](Nc2cc(CN3CCCCC3)cc(Nc3nc4cccnc4s3)n2)C1 [(S)-1-(3-((4-(Piperidin-1-ylmethyl)-6-(thiazolo[5,4-b]pyridin-2-ylamino)pyridin-2-yl)amino)pyrrolidin-1-yl)prop-2-en-1-one (10)], C=CC(=O)N1CC[C@@H](Nc2nc(CN3CCOCC3)cc(Nc3nc4cccnc4s3)n2)C1 [N2-[(3R)-1-Acryloyl-3-pyrrolidinyl]-6-(4-morpholinylmethyl)-N4-[1,3]thiazolo[5,4-b]pyridin-2-yl-2,4-pyrimidinediamine (14)] is 3200-fold higher in IC50: 6.3 nM for the first, 20000 nM for the second. The first is the more potent here.

Going from O[C@H]1CC[C@H](Nc2nc(CN3CCOCC3)cc(Nc3nc4cccnc4s3)n2)CC1 [(trans)-4-((4-(Morpholinomethyl)-6-(thiazolo[5,4-b]pyridin-2-ylamino)pyrimidin-2-yl)amino)cyclohexanol (1)] to C=CC(=O)N[C@H]1CC[C@H](Nc2nc(CN3CCOCC3)cc(Nc3nc4cccnc4s3)n2)CC1 [N-(trans-4-{[4-(4-Morpholinylmethyl)-6-([1,3]thiazolo[5,4-b]pyridin-2-ylamino)-2-pyrimidinyl]amino}cyclohexyl)-2-propenamide (5)], the IC50 rises from 100 nM to 2000 nM (20-fold).

Compared with C=CC(=O)N1CCC(Nc2nc(CN3CCOCC3)cc(Nc3nc4cccnc4s3)n2)CC1 [N2-(1-Acryloyl-4-piperidinyl)-6-(4-morpholinylmethyl)-N4-[1,3]thiazolo[5,4-b]pyridin-2-yl-2,4-pyrimidinediamine (3)], C=CC(=O)N1CC[C@H](Nc2nc(CN3CCOCC3)cc(Nc3nc4cccnc4s3)n2)C1 [N2-[(3S)-1-Acryloyl-3-pyrrolidinyl]-6-(4-morpholinylmethyl)-N4-[1,3]thiazolo[5,4-b]pyridin-2-yl-2,4-pyrimidinediamine (7)] is 1.6-fold higher in IC50: 320 nM for the first, 500 nM for the second.

Compared with C=CC(=O)NCCNc1nc(CN2CCOCC2)cc(Nc2nc3cccnc3s2)n1 [N-(2-{[4-(4-Morpholinylmethyl)-6-([1,3]thiazolo[5,4-b]pyridin-2-ylamino)-2-pyrimidinyl]amino}ethyl)-2-propenamide (2)], C/C=C/C(=O)N1CC[C@H](Nc2cc(CN3C[C@@H](C)O[C@@H](C)C3)cc(Nc3nc4cccnc4s3)n2)C1 [N-{(3S)-1-[(2E)-2-Butenoyl]-3-pyrrolidinyl}-4-{[cis-2,6-dimethyl-4-morpholinyl]methyl}-N'-[1,3]thiazolo[5,4-b]pyridin-2-yl-2,6-pyridinediamine (16)] is 32-fold lower in IC50: 1300 nM for the first, 40 nM for the second.
